In patent US8148391B2 (Cephalon, Inc., priority 2006, dated 2012):
Read-outs that look alike come from different tables or passages of the source.

Tests used:
[1] = molecular target: T1, baculovirus-expressed ALK (Homo sapiens, UniProt Q9UM73); assay: ALK Kinase Assay (ELISA-type, time-resolved fluorescence); assay type: biochemical
T1 construct: host or cells: baculovirus expression system
Method in brief: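 Substrate coating: phospholipase C-γ, 10 μg/mL in TBS. Kinase step: 30 ng/ml ALK, 15 min, 37° C. Detection and analysis: Eu-N1 PT66 antibody, with IC50 fitted as a sigmoidal variable-slope dose-response curve.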

[2] = molecular target: T2, c-Met (cytoplasmic domain) (Homo sapiens, UniProt P08581); assay: c-Met Kinase Assay (same methods as for ALK, with modifications); assay type: biochemical
T2 construct: 10 ng/mL c-Met (cytoplasmic domain, Invitrogen Corporation #PV3143); purchased Invitrogen Corporation PV3143
T2 sequence (P08581 956-1390 limits assumed): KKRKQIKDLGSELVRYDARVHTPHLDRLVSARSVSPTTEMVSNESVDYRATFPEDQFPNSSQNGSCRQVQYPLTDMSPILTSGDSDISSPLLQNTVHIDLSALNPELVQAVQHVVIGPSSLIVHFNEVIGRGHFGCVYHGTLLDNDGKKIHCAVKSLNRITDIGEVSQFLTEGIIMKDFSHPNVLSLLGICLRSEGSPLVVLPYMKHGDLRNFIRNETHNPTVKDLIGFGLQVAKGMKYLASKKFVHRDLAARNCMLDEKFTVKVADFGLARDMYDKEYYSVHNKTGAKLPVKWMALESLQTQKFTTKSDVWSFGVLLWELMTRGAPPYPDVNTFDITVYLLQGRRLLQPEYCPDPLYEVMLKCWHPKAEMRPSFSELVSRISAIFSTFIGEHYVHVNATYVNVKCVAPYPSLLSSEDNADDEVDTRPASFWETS
Method in brief: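 This plate-based kinase format uses immobilized phospholipase C-γ as substrate, phosphorylated by c-Met cytoplasmic domain (10 ng/mL) at 37° C for 15 minutes.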

[3] = ALK kinase inhibition, 1 μM ATP, read-out: ALK Activity
[4] = c-Met kinase inhibition, 1 μM ATP, read-out: cMet Activity
[5] = ALK kinase inhibition, 1 μM ATP (Km level), read-out: ALK Activity
[6] = c-Met kinase inhibition, 1 μM ATP (Km level), read-out: cMet Activity
[7] = 1 μM ATP (Km level), 30 ng/ml ALK, 37° C., 15 minutes, read-out: ALK Activity (ALK kinase inhibition, IC50 class)
[8] = 1 μM ATP (Km level), 10 ng/mL c-Met, read-out: cMet Activity (c-Met kinase inhibition, IC50 class)
[9] = 1 μM ATP (Km level), read-out: ALK Activity (ALK Kinase Inhibition, IC50)
[10] = 1 μM ATP (Km level), read-out: cMet Activity (c-Met Kinase Inhibition, IC50)

T1 sequence (Q9UM73 19-1620): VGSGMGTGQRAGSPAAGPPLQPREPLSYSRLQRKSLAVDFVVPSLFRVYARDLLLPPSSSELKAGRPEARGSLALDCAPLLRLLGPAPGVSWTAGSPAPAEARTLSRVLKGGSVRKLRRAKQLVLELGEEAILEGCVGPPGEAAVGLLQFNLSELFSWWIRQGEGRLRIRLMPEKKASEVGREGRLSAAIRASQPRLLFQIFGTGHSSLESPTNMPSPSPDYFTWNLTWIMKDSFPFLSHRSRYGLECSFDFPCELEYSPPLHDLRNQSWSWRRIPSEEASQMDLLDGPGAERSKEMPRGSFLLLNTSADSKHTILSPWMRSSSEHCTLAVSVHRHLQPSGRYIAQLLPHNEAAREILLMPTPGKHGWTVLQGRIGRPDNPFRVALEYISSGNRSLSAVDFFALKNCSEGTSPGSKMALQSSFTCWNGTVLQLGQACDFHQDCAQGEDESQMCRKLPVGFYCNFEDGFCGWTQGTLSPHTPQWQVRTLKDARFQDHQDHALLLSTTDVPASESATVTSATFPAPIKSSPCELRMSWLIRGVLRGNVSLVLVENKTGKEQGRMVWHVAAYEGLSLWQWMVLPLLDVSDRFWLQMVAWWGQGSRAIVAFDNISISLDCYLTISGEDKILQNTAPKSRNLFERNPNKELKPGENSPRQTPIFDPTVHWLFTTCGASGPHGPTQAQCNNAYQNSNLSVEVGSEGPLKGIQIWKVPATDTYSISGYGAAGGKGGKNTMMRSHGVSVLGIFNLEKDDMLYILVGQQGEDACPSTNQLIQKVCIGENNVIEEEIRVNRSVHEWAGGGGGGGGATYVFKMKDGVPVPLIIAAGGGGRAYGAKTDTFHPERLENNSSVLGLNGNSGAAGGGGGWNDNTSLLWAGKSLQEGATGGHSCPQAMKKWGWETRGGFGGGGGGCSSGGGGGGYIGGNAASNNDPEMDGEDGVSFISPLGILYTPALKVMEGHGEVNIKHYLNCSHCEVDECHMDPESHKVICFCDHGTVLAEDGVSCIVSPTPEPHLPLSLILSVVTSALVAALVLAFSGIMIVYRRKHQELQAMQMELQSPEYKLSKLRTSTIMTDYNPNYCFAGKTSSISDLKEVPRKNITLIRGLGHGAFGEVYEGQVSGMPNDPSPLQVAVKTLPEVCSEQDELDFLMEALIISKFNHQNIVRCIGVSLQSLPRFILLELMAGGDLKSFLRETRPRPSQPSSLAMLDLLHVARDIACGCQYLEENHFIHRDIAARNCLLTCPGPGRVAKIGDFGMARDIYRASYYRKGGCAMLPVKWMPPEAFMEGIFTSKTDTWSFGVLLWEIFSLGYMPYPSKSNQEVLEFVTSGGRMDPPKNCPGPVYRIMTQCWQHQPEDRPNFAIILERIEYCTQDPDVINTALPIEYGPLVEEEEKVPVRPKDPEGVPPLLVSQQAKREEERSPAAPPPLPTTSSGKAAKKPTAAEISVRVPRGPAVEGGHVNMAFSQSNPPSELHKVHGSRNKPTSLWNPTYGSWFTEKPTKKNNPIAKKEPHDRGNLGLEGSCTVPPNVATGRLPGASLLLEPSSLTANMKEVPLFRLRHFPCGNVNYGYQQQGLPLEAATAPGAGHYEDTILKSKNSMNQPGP

IC50 [1, 3] [nM]	IC50 [2, 4] [nM]	IC50 [1, 7] [nM]	IC50 [2, 8] [nM]	further results	Structure (SMILES)
< 100	> 10000				COc1cc2c(cc1Nc1ncc(Cl)c(Nc3ccccc3S(=O)(=O)C(C)C)n1)CCN(CC(=O)N1CCN(C)CC1)CC2 [Example 1541, 2-(7-{5-Chloro-4-[2-(propane-2-sulfonyl)-phenylamino]-pyrimidin-2-ylamino}-8-methoxy-1,2,4,5-tetrahydro-3-benzazepin-3-yl)-1-(4-methyl-piperazin-1-yl)-ethanone]
				IC50 [1, 5]: < 100 nM; IC50 [2, 6]: 1000 to 10000 nM	CNS(=O)(=O)c1ccccc1Nc1nc(Nc2ccc3c(c2)COC[C@@H]2CCCN32)ncc1Cl [Example 13, 2-{5-Chloro-2-[(S)-(2,3,3a,4-tetrahydro-1H,6H-5-oxa-10b-aza-benzo[e]azulen-8-yl)amino]-pyrimidin-4-ylamino}-N-methyl-benzenesulfonamide]
< 100	> 10000				COc1cc2c(cc1Nc1ncc(Cl)c(Nc3ccccc3S(=O)(=O)C(C)C)n1)CCN(CC(=O)N1CCOCC1)CC2 [Example 1536, 2-(7-{5-Chloro-4-[2-(propane-2-sulfonyl)-phenylamino]-pyrimidin-2-ylamino}-8-methoxy-1,2,4,5-tetrahydro-3-benzazepin-3-yl)-1-morpholin-4-yl-ethanone]
1000 to 10000	1000 to 10000				COCCN1CCc2ccc(Nc3ncc(Cl)c(Nc4c(F)cccc4OCC(=O)OC)n3)cc2CC1 [Example 1727, (2-{5-Chloro-2-[3-(2-methoxy-ethyl)-2,3,4,5-tetrahydro-1H-benzo[d]azepin-7-ylamino]-pyrimidin-4-ylamino}-3-fluoro-phenoxy)-acetic acid methyl ester]
				IC50 [1, 5]: < 100 nM; IC50 [2, 6]: > 10000 nM	COc1cc(N2CCOCC2)ccc1Nc1nc(Nc2ccc3c(c2OC)CCCC(=O)N3C)ncc1Cl [Example 117, 7-[5-Chloro-4-(2-methoxy-4-morpholin-4-yl-phenylamino)-pyrimidin-2-ylamino]-6-methoxy-1-methyl-1,3,4,5-tetrahydro-benzo[b]azepin-2-one]
		< 100	1000 to 10000		COc1cc2c(cc1Nc1ncc(Cl)c(Nc3ccccc3S(=O)(=O)N(C)C)n1)CCN(C(=O)C(C)(C)N)CC2 [Example 1207, 2-{2-[3-(2-Amino-2-methyl-propionyl)-8-methoxy-2,3,4,5-tetrahydro-1H-benzo[d]azepin-7-ylamino]-5-chloro-pyrimidin-4-ylamino}-N,N-dimethyl-benzenesulfonamide]
< 100	> 10000				COc1cc2c(cc1Nc1ncc(Cl)c(N[C@@H]3CCCC[C@H]3NS(C)(=O)=O)n1)NC(=O)CN(Cc1ccccc1)C2 [Example 1651, N-{(1R,2R)-2-[2-(4-Benzyl-7-methoxy-2-oxo-2,3,4,5-tetrahydro-1H-benzo[e][1,4]diazepin-8-ylamino)-5-chloro-pyrimidin-4-ylamino]-cyclohexyl}-methanesulfonamide]
< 100	100 to 1000				CNC(=O)c1cc(C)cc(C)c1Nc1nc(Nc2ccc3c(c2)CCNC(=O)C3)ncc1Cl [Example 1814, 2-[5-Chloro-2-(2-oxo-2,3,4,5-tetrahydro-1H-benzo[d]azepin-7-ylamino)-pyrimidin-4-ylamino]-3,5,N-trimethyl-benzamide]
				IC50 [1, 5]: < 100 nM; IC50 [2, 6]: > 10000 nM	COc1c(Nc2ncc(Cl)c(N[C@@H]3CCCC[C@H]3NS(C)(=O)=O)n2)ccc2c1CCCC(=O)N2C [Example 118, N-{(1R,2R)-2-[5-Chloro-2-(6-methoxy-1-methyl-2-oxo-2,3,4,5-tetrahydro-1H-benzo[b]azepin-7-ylamino)-pyrimidin-4-ylamino]-cyclohexyl}-methanesulfonamide]
		< 100	100 to 1000		COCCN1CCc2ccc(Nc3ncc(Cl)c(Nc4ccccc4S(C)(=O)=O)n3)cc2CC1 [Example 1249, 5-Chloro-N(4)-(2-methanesulfonyl-phenyl)-N(2)-[3-(2-methoxy-ethyl)-2,3,4,5-tetrahydro-1H-3-benzazepin-7-yl]-pyrimidine-2,4-diamine]
				IC50 [1, 9]: 100 to 1000 nM; IC50 [2, 10]: > 10000 nM	CCN1C(=O)CCCc2c1ccc(Nc1ncc(Cl)c(NC3C4C=CC(C4)C3C(=O)N(C)C)n1)c2OC (stereo not drawn) [Example 602, (2-exo-3-exo)-3-[5-Chloro-2-(1-ethyl-6-methoxy-2-oxo-2,3,4,5-tetrahydro-1H-benzo[b]azepin-7-ylamino)-pyrimidin-4-ylamino]-bicyclo[2.2.1]hept-5-ene-2-carboxylic acid dimethylamide]
< 100	100 to 1000				COc1cc2c(cc1Nc1ncc(Cl)c(Nc3ccccc3S(=O)(=O)N3CC[C@@H](O)C3)n1)CCN(C[C@H](C)O)CC2 [Example 1554, (R)-1-(2-{5-Chloro-2-[3-((S)-2-hydroxy-propyl)-8-methoxy-2,3,4,5-tetrahydro-1H-3-benzazepin-7-ylamino]-pyrimidin-4-ylamino}-benzenesulfonyl)-pyrrolidin-3-ol]
100 to 1000	< 100				CCN1CC(=O)N(CC)c2cc(Nc3ncc(Cl)c(Nc4c(C)csc4C(=O)NC)n3)ccc2C1 [Example 1874, 3-[5-chloro-2-(1,4-diethyl-2-oxo-2,3,4,5-tetrahydro-1H-benzo[e][1,4]diazepin-8-ylamino)-pyrimidin-4-ylamino]-4-methyl-thiophene-2-carboxylic acid methylamide]
		< 100	1000 to 10000		COc1cc2c(cc1Nc1ncc(Cl)c(Nc3ccccc3S(=O)(=O)C(C)C)n1)CCC(NCCO)CC2 (centres unmarked) [Example 1090, 2-(2-{5-Chloro-4-[2-(propane-2-sulfonyl)-phenylamino]-pyrimidin-2-ylamino}-3-methoxy-6,7,8,9-tetrahydro-5H-benzocyclohepten-7-ylamino)-ethanol]
< 100	> 10000				COc1cc2c(cc1Nc1ncc(Cl)c(N[C@@H]3CCCC[C@H]3NS(C)(=O)=O)n1)NC(=O)CN(C(=O)C(F)(F)F)C2(C)C [Example 1463, N-((1R,2R)-2-{5-Chloro-2-[7-methoxy-5,5-dimethyl-2-oxo-4-(2,2,2-trifluoro-acetyl)-2,3,4,5-tetrahydro-1H-benzo[e][1,4]diazepin-8-ylamino]-pyrimidin-4-ylamino}-cyclohexyl)-methanesulfonamide]
				IC50 [1, 5]: < 100 nM; IC50 [2, 6]: 100 to 1000 nM	COCCN1CCc2ccc(Nc3ncc(Cl)c(N[C@@H]4CCCC[C@H]4NC(=O)C(F)(F)F)n3)cc2CC1 [Example 450, N-((1R,2R)-2-{5-Chloro-2-[3-(2-methoxy-ethyl)-2,3,4,5-tetrahydro-1H-benzo[d]azepin-7-ylamino]-pyrimidin-4-ylamino}-cyclohexyl)-2,2,2-trifluoro-acetamide]
		< 100	1000 to 10000		CNC(=O)CN1CCc2cc(Nc3ncc(Cl)c(Nc4ccccc4C(=O)NC)n3)c(OC)cc2CC1 [Example 1114, 2-[5-Chloro-2-(8-methoxy-3-methylcarbamoylmethyl-2,3,4,5-tetrahydro-1H-benzo[d]azepin-7-ylamino)-pyrimidin-4-ylamino]-N-methyl-benzamide]
				IC50 [1, 5]: < 100 nM; IC50 [2, 6]: < 100 nM	CNC(=O)c1ccccc1Nc1nc(Nc2ccc3c(c2)CCCC(=O)N3C)ncc1Br [Example 197, 2-[5-Bromo-2-(1-methyl-2-oxo-2,3,4,5-tetrahydro-1H-benzo[b]azepin-7-ylamino)-pyrimidin-4-ylamino]-N-methyl-benzamide]
				IC50 [1, 9]: < 100 nM; IC50 [2, 10]: > 10000 nM	COc1cc2c(cc1Nc1ncc(Cl)c(Nc3ccc(C(F)(F)F)cc3S(=O)(=O)N(C)C)n1)CCN(CC(=O)N(C)C)CC2 [Example 843, 2-{7-[5-Chloro-4-(2-dimethylsulfamoyl-4-trifluoromethyl-phenylamino)-pyrimidin-2-ylamino]-8-methoxy-1,2,4,5-tetrahydro-benzo[d]azepin-3-yl}-N,N-dimethyl-acetamide]
		100 to 1000	< 100		CN1C(=O)CCCc2cc(Nc3ncc(Cl)c(Nc4c(F)cccc4C(=O)NCCC#N)n3)ccc21 [Example 1042, 2-[5-Chloro-2-(1-methyl-2-oxo-2,3,4,5-tetrahydro-1H-benzo[b]azepin-7-ylamino)-pyrimidin-4-ylamino]-N-(2-cyano-ethyl)-3-fluoro-benzamide]
		< 100	1000 to 10000		CCNC(=O)c1cccc(F)c1Nc1nc(Nc2cc3c(cc2OC)CCN(CC(=O)NC)CC3)ncc1Cl [Example 1364, 2-[5-Chloro-2-(8-methoxy-3-methylcarbamoylmethyl-2,3,4,5-tetrahydro-1H-benzo[d]azepin-7-ylamino)-pyrimidin-4-ylamino]-N-ethyl-3-fluoro-benzamide]
		< 100	> 10000		CCN1C(=O)C(NC(=O)C(F)(F)F)CCc2c1ccc(Nc1ncc(Cl)c(N[C@@H]3CCCC[C@H]3NS(C)(=O)=O)n1)c2OC (stereo partly drawn) [Example 1335, N-{7-[5-Chloro-4-((1R,2R)-2-methanesulfonylamino-cyclohexylamino)-pyrimidin-2-ylamino]-1-ethyl-6-methoxy-2-oxo-2,3,4,5-tetrahydro-1H-benzo[b]azepin-3-yl}-2,2,2-trifluoro-acetamide]
